Reference: US7799821B2, “Therapeutic compounds” (Allergan, Inc., priority 2004, dated 2010)
Like-named read-outs stand apart in the source and are kept apart here.

Experiments:
[1] = molecular target: T1, human EP2 receptors (Homo sapiens, UniProt P43116); test: Competition radioligand binding ([3H]PGE2), EP2; conditions: read-out: BINDING IC50 HEP2
T1 construct: expressed in transfected cells; host or cells: HEK 293
Method: Competition binding experiments were performed in a medium containing Hank's balanced salt solution, […], membranes (˜60 μg protein) or 2×10^5 cells from HEK 293 cells stably expressing human EP2 receptors, [^3H]PGE2 (10 nM) and various concentrations of test compounds in a total volume of 300 μl. Reaction mixtures were incubated at 23° C. for 60 min, and were filtered over Whatman GF/B filters under vacuum. Filters were washed three times with 5 ml ice-cold buffer containing 50 mM Tris/HCl (pH 7.3). Non-specific binding was estimated in the presence of excess unlabeled PGE2 (10 μM). Binding data fitted to the binding model for a single class of binding sites, using nonlinear regression analysis. IC50 values thus obtained were converted to Ki using the equation of Ki=(IC50/(1+[L]/KD) where [L] represents PGE2 concentration (10 nM) and KD the dissociation constant for [^3H]PGE2 at human EP2 receptors (40 nM).
HEK-293 cells stably expressing the human or feline FP receptor, or EP1, EP2, or EP4 receptors were washed with TME buffer, scraped from the bottom of the flasks, and homogenized for 30 sec using a Brinkman PT 10/35 polytron. TME buffer was added to achieve a final 40 ml volume in the centrifuge tubes (the composition of TME is 100 mM TRIS base, 20 mM MgCl2, […]; 10N HCl is added to achieve a pH of 7.4).
The cell homogenate was centrifuged at 19000 r.p.m. for 20 min at 4° C. using a Beckman Ti-60 rotor. The resultant pellet was resuspended in TME buffer to give a final 1 mg/ml protein concentration, as determined by Biorad assay. Radioligand binding competition assays vs. [^3H-]17 —phenyl PGF2α (5 nM) were performed in a 100 μl volume for 60 min. Binding reactions were started by adding plasma membrane fraction. The reaction was terminated by the addition of 4 ml ice-cold TRIS-HCl buffer and rapid filtration through glass fiber GF/B filters using a Brandel cell harvester. The filters were washed 3 times with ice-cold buffer and oven dried for one hour.
[^3H-] PGE2 (specific activity 180 Ci mmol) was used as the radioligand for EP receptors. [^3H] 17-phenyl PGF2α was employed for FP receptor binding studies. Binding studies employing EP1, EP2, EP4 and FP receptors were performed in duplicate in at least three separate experiments. A 200 μl assay volume was used. Incubations were for 60 min at 25° C. and were terminated by the addition of 4 ml of ice-cold 50 mM TRIS-HCl, followed by rapid filtration through Whatman GF/B filters and three additional 4 ml washes in a cell harvester (Brandel). Competition studies were performed using a final concentration of 5 nM [^3H]—PGE2, or 5 nM [^3H] 17-phenyl PGF2α and non-specific binding determined with 10^−5M of unlabeled PGE2, or 17-phenyl PGF2α, according to receptor subtype studied.

[2] = molecular target: T2, hEP4/Gqs5 (Homo sapiens, UniProt P35408); test: FLIPR calcium signal, hEP4; format: cell-based
T2 construct: expressed in transfected cells; host or cells: HEK-293(EBNA)
T2 sequence (P35408 whole entry): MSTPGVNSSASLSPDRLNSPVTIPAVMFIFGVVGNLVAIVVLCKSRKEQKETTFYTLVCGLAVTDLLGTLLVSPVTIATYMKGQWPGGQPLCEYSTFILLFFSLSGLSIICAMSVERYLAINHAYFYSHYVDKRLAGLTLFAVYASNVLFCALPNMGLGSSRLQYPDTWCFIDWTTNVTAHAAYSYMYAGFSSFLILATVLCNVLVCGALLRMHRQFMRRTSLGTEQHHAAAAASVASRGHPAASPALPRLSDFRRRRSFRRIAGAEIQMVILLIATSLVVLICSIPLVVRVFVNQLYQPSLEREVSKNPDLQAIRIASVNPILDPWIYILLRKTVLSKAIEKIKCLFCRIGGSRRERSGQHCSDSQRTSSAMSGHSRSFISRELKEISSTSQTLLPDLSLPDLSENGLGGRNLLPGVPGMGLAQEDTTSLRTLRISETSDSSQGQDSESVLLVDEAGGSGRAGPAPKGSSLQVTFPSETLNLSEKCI
Method: (§1) HEK-293(EBNA) cells, stably expressing one type or subtype of recombinant human prostaglandin receptors (prostaglandin receptors expressed: hDP/Gqs5; hEP1; hEP2/Gqs5; hEP3A/Gqi5; hEP4/Gqs5; hFP; hIP; hTP), were cultured in 100 mm culture dishes in high-glucose DMEM medium containing 10% fetal bovine serum, 2 mM 1-glutamine, 250 μg/ml geneticin (G418) and 200 μg/ml hygromycin B as selection markers, and 100 units/ml penicillin G, 100 μg/ml streptomycin and 0.25 μg/ml amphotericin B. • (b) Calcium Signal Studies on the FLIPR™
(§2) Cells were seeded at a density of 5×10^4 cells per well in Biocoat® Poly-D-lysine-coated black-wall, clear-bottom 96-well plates (Becton-Dickinson) and allowed to attach overnight in an incubator at 37° C. Cells were then washed two times with HBSS-HEPES buffer (Hanks Balanced Salt Solution without bicarbonate and phenol red, 20 mM HEPES, pH 7.4) using a Denley Cellwash plate washer (Labsystems). After 45 minutes of dye-loading in the dark, using the calcium-sensitive dye Fluo-4 AM at a final concentration of 2 μM, plates were washed four times with HBSS-HEPES buffer to remove excess dye leaving 100 μl in each well. Plates were re-equilibrated to 37° C. for a few minutes.
(§3) Cells were excited with an Argon laser at 488 nm, and emission was measured through a 510-570 nm bandwidth emission filter (FLIPR™, Molecular Devices, Sunnyvale, Calif.). Drug solution was added in a 50 μl volume to each well to give the desired final concentration. The peak increase in fluorescence intensity was recorded for each well. On each plate, four wells each served as negative (HBSS-HEPES buffer) and positive controls (standard agonists: BW245C (hDP); PGE2 (hEP1; hEP2/Gqs5; hEP3A/Gqi5; hEP4/Gqs5); PGF2α (hFP); carbacyclin (hIP); U-46619 (hTP), depending on receptor). The peak fluorescence change in each drug-containing well was then expressed relative to the controls.
(§4) Compounds were tested in a high-throughput (HTS) or concentration-response (CoRe) format. In the HTS format, forty-four compounds per plate were examined in duplicates at a concentration of 10^−5 M. To generate concentration-response curves, four compounds per plate were tested in duplicates in a concentration range between 10^−5 and 10^−11 M. The duplicate values were averaged. In either, HTS or CoRe format each compound was tested on at least 3 separate plates using cells from different passages to give an n≧3.

[3] = molecular target: T3, hEP2/Gqs5 (Homo sapiens, UniProt P43116); test: FLIPR calcium signal, hEP2; format: cell-based
T3 construct: expressed in transfected cells; host or cells: HEK-293(EBNA)
T3 sequence (P43116 whole entry): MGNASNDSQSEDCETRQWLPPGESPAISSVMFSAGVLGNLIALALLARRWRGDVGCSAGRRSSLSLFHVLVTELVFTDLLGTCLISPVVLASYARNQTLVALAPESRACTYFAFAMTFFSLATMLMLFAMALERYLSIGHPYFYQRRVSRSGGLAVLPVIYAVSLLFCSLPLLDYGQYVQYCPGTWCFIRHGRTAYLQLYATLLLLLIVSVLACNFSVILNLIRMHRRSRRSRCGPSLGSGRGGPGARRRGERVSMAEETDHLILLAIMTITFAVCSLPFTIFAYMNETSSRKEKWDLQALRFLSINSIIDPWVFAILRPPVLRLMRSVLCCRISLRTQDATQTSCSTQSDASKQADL
Method: as §1, §2, §3, §4

[4] = FLIPR Ca2+ signal, HEK-293(EBNA), read-out: FUNCTIONAL EC50 HEP4
[5] = FLIPR Ca2+ signal, HEK-293(EBNA), read-out: FUNCTIONAL EC50 HEP2
[6] = read-out: FUNCTIONAL Ca2+ EC50 HEP4
[7] = read-out: FUNCTIONAL Ca2+ EC50 HEP2

T1 sequence (P43116 whole entry): as above

Row | EC50 [3, 5] [µM] | Compound | also measured
1 | 0.708 | CC(C)(CO)c1ccc([C@@H]2[C@@H](CCCCCCC(=O)O)[C@H](Cl)C[C@H]2O)cc1 | IC50 [1]: 8.95 µM; EC50 [2, 4]: > 10 µM
2 | > 10 | CCCC1(C(O)c2ccc([C@H]3[C@H](O)CC(=O)[C@@H]3CCCCCCC(=O)OC)cc2)CCC1 (some centres unmarked) | –
3 | > 10 | COC(=O)CCC/C=C\C[C@@H]1[C@@H](c2ccc(C3(O)CCC3)cc2)[C@H](O)C[C@H]1Cl | –
4 | 0.392 | O=C(O)CCC/C=C\C[C@@H]1[C@@H](c2ccc(C(O)C3CCCCC3)cc2)[C@H](O)C[C@H]1Cl (some centres unmarked) [drawing 77] | –
5 | 0.546 | CCCC1(C(O)c2ccc([C@@H]3[C@@H](CCCCCCC(=O)O)[C@H](Cl)C[C@H]3O)cc2)CCC1 (some centres unmarked) | –
6 | > 10 | COC(=O)CCCCCC[C@@H]1[C@@H](c2ccc(C(C)(C)CO)cc2)[C@H](O)C[C@H]1Cl [drawing 115] | EC50 [2, 4]: 26.3 µM
7 | > 10 | CC(C)(CO)c1ccc([C@@H]2[C@@H](C/C=C\CCCC(=O)O)[C@H](Cl)C[C@H]2O)cc1 [drawing 114] | –
8 | 0.266 | CCCC1(C(O)c2cccc([C@@H]3[C@@H](Cc4cccc(OCC(=O)O)c4)[C@H](Cl)C[C@H]3O)c2)CCC1 (some centres unmarked) | IC50 [1]: 5.2 µM
9 | – | CCCC1([C@@H](O)c2ccc([C@H]3CCC(=O)[C@@H]3C/C=C\CCCC(=O)O)cc2)CCC1 [drawing 194] | EC50 [2, 6]: > 10 µM; EC50 [3, 7]: > 10 µM
10 | > 10 | COC(=O)CCCCCC[C@@H]1[C@@H](c2ccc(C(C)(C)CO)cc2)[C@H](O)C[C@H]1Cl [drawing 119] | EC50 [2, 4]: > 10 µM
11 | 0.526 | CC(C)(CO)c1ccc([C@H]2[C@H](O)CC(=O)[C@@H]2CCCCCCC(=O)O)cc1 | IC50 [1]: 18.7 µM
12 | > 10 | CCCC1(C(O)c2ccc([C@@H]3[C@@H](C/C=C\CCCC(=O)OC)[C@H](Cl)C[C@H]3O)cc2)CCC1 (some centres unmarked) | –
13 | – | O=C(O)CCC/C=C\C[C@@H]1[C@@H](c2ccc(CO)cc2)[C@H](O)C[C@H]1Cl | IC50 [1]: 13.2 µM
14 | > 10 | CCCC1(C(O)c2cccc([C@H]3[C@H](O)CC(=O)[C@@H]3C/C=C\CCCC(=O)NCC)c2)CCC1 (some centres unmarked) | EC50 [2, 4]: > 10 µM
15 | 0.635 | CCCC1(C(O)c2ccc([C@H]3[C@H](O)CC(=O)[C@@H]3CCCCCCC(=O)O)cc2)CCC1 (some centres unmarked) | –
16 | 5.26 | CCCC1(C(O)c2cccc([C@H]3[C@H](O)CC(=O)[C@@H]3CCCCCCC(=O)O)c2)CCC1 (some centres unmarked) | –
17 | 3.72 | CCCC1(C(O)c2ccc([C@H]3[C@H](O)CC(=O)[C@@H]3C/C=C\CCCC(=O)O)cc2)CCC1 (some centres unmarked) | –
18 | – | COC(=O)CCC/C=C\C[C@H]1C(=O)CC[C@@H]1c1ccc([C@H](O)C2CCCCC2)cc1 | EC50 [3, 7]: > 10 µM
19 | > 10 | COC(=O)CCCCCC[C@H]1C(=O)C[C@@H](O)[C@@H]1c1ccc(C)cc1 | –
20 | 2.27 | CCCC1(C(O)c2ccc([C@@H]3[C@@H](C/C=C\CCCC(=O)O)[C@H](Cl)C[C@H]3O)cc2)CCC1 (some centres unmarked) | –
21 | > 10 | O=C(O)CCC/C=C\C[C@H]1C(=O)C[C@@H](O)[C@@H]1c1ccc(C2(O)CCC2)cc1 | –
22 | > 10 | O=C(O)CCCCCC[C@@H]1[C@@H](c2ccc(CO)cc2)[C@H](O)C[C@H]1Cl | –

Row | EC50 [3, 5] [µM] | Compound | also measured
23 | > 10 | COC(=O)CCC/C=C\C[C@H]1C(=O)C[C@@H](O)[C@@H]1c1ccc(C(O)C2CCCCC2)cc1 (some centres unmarked) | EC50 [2, 4]: > 10 µM
24 | > 10 | COC(=O)CCCCCC[C@@H]1[C@@H](c2ccc(C(O)C(C)C)cc2)[C@H](O)C[C@H]1Cl (some centres unmarked) | EC50 [2, 4]: > 10 µM
25 | 0.779 | CC(C)(C)C(O)c1ccc([C@@H]2[C@@H](C/C=C\CCCC(=O)O)[C@H](Cl)C[C@H]2O)cc1 (some centres unmarked) | IC50 [1]: 1.54 µM; EC50 [2, 4]: > 10 µM
26 | > 10 | O=C(O)CCC/C=C\C[C@H]1C(=O)C[C@@H](O)[C@@H]1c1ccc(C(O)C2CCCCC2)cc1 (some centres unmarked) | –
27 | 0.45 | O=C(O)CCCCCC[C@H]1C(=O)C[C@@H](O)[C@@H]1c1ccc(C(O)C2CCCCC2)cc1 (some centres unmarked) | –
28 | 1.55 | O=C(O)COCC#CCC1[C@H](Cl)C[C@@H](O)[C@@H]1c1ccc(C(O)C2CCCCC2)cc1 (some centres unmarked) | –
29 | > 10 | COC(=O)CCC/C=C\C[C@@H]1[C@@H](c2ccc(C(O)C(C)C)cc2)[C@H](O)C[C@H]1Cl (some centres unmarked) | EC50 [2, 4]: > 10 µM
30 | 3.84 | O=C(O)COC/C=C\C[C@@H]1[C@@H](c2ccc(C(O)C3CCCCC3)cc2)[C@H](O)C[C@H]1Cl (some centres unmarked) | –
31 | 6.58 | COC(=O)CCCCCC[C@@H]1[C@@H](c2ccc(C(O)C(C)(C)C)cc2)[C@H](O)C[C@H]1Cl (some centres unmarked) [drawing 133] | EC50 [2, 4]: > 10 µM
32 | – | COC(=O)CCCCCC[C@@H]1[C@@H](c2ccc(CO)cc2)[C@H](O)C[C@H]1Cl | EC50 [2, 4]: > 10 µM
33 | – | CCCCCC(O)c1ccc([C@H]2CCC(=O)[C@@H]2CCCc2ccc(C(=O)O)s2)cc1 (some centres unmarked) | EC50 [2, 6]: > 10 µM
34 | – | COC(=O)CCC/C=C\C[C@@H]1[C@@H](c2ccc(C(C)(C)CO)cc2)[C@H](O)C[C@H]1Cl [drawing 113] | EC50 [2, 4]: > 10 µM
35 | 20.8 | O=C(O)COCCCC[C@@H]1[C@@H](c2ccc(C(O)C3CCCCC3)cc2)[C@H](O)C[C@H]1Cl (some centres unmarked) | –
36 | > 10 | COC(=O)CCC/C=C\C[C@@H]1[C@@H](c2ccc(C(C)(C)CO)cc2)[C@H](O)C[C@H]1Cl [drawing 117] | IC50 [1]: 48.8 µM
37 | > 10 | COC(=O)CCC/C=C\C[C@@H]1[C@@H](c2ccc(CO)cc2)[C@H](O)C[C@H]1Cl | –
38 | > 10 | COC(=O)CCCCCC[C@@H]1[C@@H](c2ccc(C(C)(C)C)cc2)[C@H](O)C[C@H]1Cl | –
39 | – | O=C(O)CCCCCC[C@H]1C(=O)CC[C@@H]1c1ccc(C2(O)CCC2)cc1 | EC50 [3, 7]: > 10 µM
40 | 2.81 | O=C(O)CCCCCC[C@@H]1[C@@H](c2ccc(C(O)C3CCCCC3)cc2)[C@H](O)C[C@H]1Cl (some centres unmarked) | –
41 | > 10 | COC(=O)CCCCCC[C@H]1C(=O)C[C@@H](O)[C@@H]1c1ccc(C(O)C2CCCCC2)cc1 (some centres unmarked) | –
42 | 5 | COC(=O)CCCCCC[C@@H]1[C@@H](c2ccc(C(O)C(C)(C)C)cc2)[C@H](O)C[C@H]1Cl (some centres unmarked) [drawing 131] | EC50 [2, 4]: > 10 µM
43 | 0.405 | O=C(O)CCC/C=C\C[C@H]1C(=O)C[C@@H](O)[C@@H]1c1ccc2c(c1)CCC2O (some centres unmarked) | IC50 [1]: 2.28 µM
44 | 0.173 | CC(C)(CO)c1ccc([C@@H]2[C@@H](C/C=C\CCCC(=O)O)[C@H](Cl)C[C@H]2O)cc1 [drawing 118] | IC50 [1]: 4.19 µM
